Assay results taken from publication PMC10251479, “PROTAC-Induced Glycogen Synthase Kinase 3β Degradation as a Potential Therapeutic Strategy for Alzheimer’s Disease” (ACS Chemical Neuroscience, 2023).

Columns and labels:
[1] = tested on: SH-SY5Y cells; assay: Cytotoxicity in SH-SY5Y cells (MTT); type: cell-based, human
Experimental: Human neuronal SH-SY5Y cells (Sigma-Aldrich, St. Louis, MO, USA) were routinely grown in Dulbecco’s modified Eagle’s Medium supplemented with 10% fetal bovine serum, 2 mM l-glutamine, 50 U/mL penicillin, and 50 μg/mL streptomycin at 37 °C in a humidified incubator with […]
Determination of cytotoxicity
SH-SY5Y cells were seeded in a 96-well plate at 2 × 10^4 cells/well, incubated for 24 h and then […]
for 24 h at 37°C in 5% CO2. The cell viability, in terms of mitochondrial metabolic function, was evaluated by the reduction of 3-(4,5-dimethyl-2-thiazolyl)-2,5-diphenyl-2H-tetrazolium bromide […]
(MTT) to its insoluble formazan. Briefly, the treatment was replaced with MTT in HBSS [0.5 mg/mL] for 2 h at 37°C in 5% CO2. After washing with HBSS, formazan crystals were dissolved in isopropanol. The amount of formazan was measured (570 nm, reference filter 690 nm) using a multilabel plate reader (VICTOR™ X3, PerkinElmer, Waltham, MA, USA). Data are expressed as mean of three independent experiments. […]

[2] = target: GSK-3β protein (Homo sapiens, UniProt P49841); assay: GSK-3β inhibition in vitro assay (Kinase-Glo luminescent); type: biochemical; parameters: purchased Millipore (Millipore Iberica S.A.U.); details: ATP 1 μM, GSM substrate 25 μM, 30 min at 37 °C; mean of at least two determinations in duplicate; read-out: IC50 ± SEM, GSK-3β activity
Description: N-(2-(2-(2-((2-(2,6-dioxopiperidin-3-yl)-1,3-dioxoisoindolin-4-yl)amino)ethoxy)ethoxy)ethyl)- 4-((2-(naphthalen-1-yl)-3,5-dioxo-1,2,4-thiadiazolidin-4-yl)methyl)benzamide (4). Synthesized […]
GSK-3β inhibition in vitro assay. Human recombinant GSK-3β, prephosphorylated polypeptide substrate and white 96-well plates were purchased from Millipore (Millipore Iberica S.A.U.). Kinase-Glo Luminescent Kinase Assay was obtained from Promega (Promega Biotech Iberica, SL).
Adenosinetriphosphate (ATP) and all other reagents were from Sigma-Aldrich. Assay buffer contained 50 mM 4-(2-hydroxyethyl)-1- piperazineethanesulfonic acid (HEPES) (pH 7.5), 1 mM ethylenediaminetetraacetic acid (EDTA), 1 mM ethylene glycol tetraacetic acid (EGTA), and 15 mM magnesium acetate. The in solution experiments for GSK-3β inhibition analysis were performed by following the method developed by Baki et al.[1] In a typical assay, 10 μL of test compound (dissolved […]
in DMSO at 1 mM concentration and diluted in advance in assay buffer to the desired concentration) and 10 μL (20 ng) of enzyme were added to each well in presence of 20 μL of assay buffer containing […]
After a 30 min incubation time at 37 °C, the enzymatic reaction was stopped by adding 40 μL of Kinase-Glo reagent. Glow-type luminescence was recorded after 10 min using a Victorx3 (PerkinElmer Waltham, MA, USA) plate […]
inhibitory activities were calculated based on maximal kinase (average positive) and luciferase activities (average negative) measured in the absence of inhibitor and in the presence of reference […]
μM), respectively. The linear regression parameters were determined and the IC 50 extrapolated by GraphPad software (version 5.0; GraphPad Software, La Jolla, CA, USA).

[3] = PAMPA-BBB permeation; type: in vitro ADME
Experimental: (§1) 11. PAMPA BBB permeation studies.
(§2) Prediction of the brain penetration was evaluated using a parallel artificial membrane permeability assay (PAMPA).[12] Ten commercial drugs, PBS at pH 7.4, EtOH, and dodecane were purchased from Sigma- Aldrich, Acros organics, Merck, and Fluka. The porcine polar brain lipid (PBL) was from Avanti Polar Lipids. The donor plate was a 96-well filtrate plate (Multiscreen® IP Sterile Plate PDVF […]
(§3) both from Millipore. Filter PDVF membrane units (diameter 30 mm, pore size 0.45 µm) from Symta were used to filter the samples. A 96-well plate UV reader (Biteck Instruments, Synergy H4 Hibrid Reader) was used for the UV measurements.
12 mg of promazine) were dissolved in 1 mL of EtOH. 100 µL of this compound stock solution were taken and 1400 µL of EtOH and 3500 µL of PBS were added to reach 30% of EtOH concentration in the experiment. These solutions were filtered. The acceptor 96-well microplate was filled with 180 µL of PBS/EtOH (70/30). The donor 96-well plate was coated with 4 µL of porcine brain lipid in dodecane (20 mg mL-1) and after 5 min, 180 µL of each compound solution was added. 1 mg of […]
of EtOH and 1.4 mL of PBS, filtered and then added to the donor 96-well plate. Then the donor plate was carefully put on the acceptor plate to form a “sandwich”, which was left undisturbed for 2 h and 45 min at 25 °C. During this time the compounds diffused from the donor plate through the brain lipid membrane into the acceptor plate. After incubation, the donor plate was removed. UV plate reader determined the concentration of compounds and commercial drugs in the acceptor and the donor plates. Every sample was analyzed at three to five wavelengths (between 200 and 500 nm), in 3 wells and in two independent runs. Results are given as the mean and the average of the two runs is reported. Quality control compounds (previously mentioned) of known BBB permeability were included in each experiment to validate the analysis set.

[4] = tested on: SH-SY5Y cells; assay: Neuroprotective effects against Aβ25-35 peptide in SH-SY5Y cells (MTT); type: cell-based, human; details: 0.5 and 1 μM for 2 h, then 3 h with Aβ25–35 10 μM
Experimental: Data are reported as mean ± SEM of three independent experiments. […]
measured (570 nm, reference filter 690 nm) using a multilabel plate reader (VICTOR™ X3, PerkinElmer, Waltham, MA, USA).[11] Data are reported as mean ± SEM of three independent experiments. The neurotoxicity was expressed as a percentage of control cells and calculated by the formula: 100 – ((absorbance of treated neurons/absorbance of untreated neurons) × 100). […]
analysis was performed using one-way ANOVA with the Dunnett post hoc test. Differences were considered significant at p < 0.05. Analyses were performed using GraphPad PRISM software (version 5.0; GraphPad Software, La Jolla, CA, USA) on a Windows platform.
as §1, §2, §3
12 mg of promazine) were dissolved in 1 mL of EtOH. […]

[5] = classified from experimental Pe

Sequence of GSK-3β protein (P49841 whole entry): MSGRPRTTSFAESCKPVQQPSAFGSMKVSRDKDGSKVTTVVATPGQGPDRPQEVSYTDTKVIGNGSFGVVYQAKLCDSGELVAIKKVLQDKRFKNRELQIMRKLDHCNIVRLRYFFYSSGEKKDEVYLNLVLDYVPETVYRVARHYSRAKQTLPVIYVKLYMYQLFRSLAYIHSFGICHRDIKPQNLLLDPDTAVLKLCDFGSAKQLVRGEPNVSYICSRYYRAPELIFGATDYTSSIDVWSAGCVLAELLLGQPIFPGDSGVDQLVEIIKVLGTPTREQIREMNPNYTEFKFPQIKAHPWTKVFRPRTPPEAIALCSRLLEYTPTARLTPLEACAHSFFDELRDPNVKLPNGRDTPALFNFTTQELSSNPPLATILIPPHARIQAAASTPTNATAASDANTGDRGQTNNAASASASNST

O=C(Cn1cc(C2=C(c3ccc(Cl)cc3Cl)C(=O)NC2=O)c2ccccc21)NCCCOCCCCOCCCNc1cccc2c1C(=O)N(C1CCC(=O)NC1=O)C2=O (stereo not shown) [Compound 1]
concentration at which cytotoxicity was shown ([1]; MTT, 24 h treatment, 1.25–40 μM): higher than 20 μM | nontoxic up to (neuronal cells) ([1]; neuronal cells): up to 20 μM | IC50 [2]: 833 ± 62 nM | Papp at 2.75 h ([3]; PAMPA, pH 7.4, PBS:EtOH (70:30), 2 h 45 min at 25 °C, porcine brain lipid, mean ± SD of two independent experiments, read-out: Pe (experimental data)): 15.3 ± 1.12 ×10⁻⁶ cm/s | BBB permeability classification [3, 5]: CNS± | Prediction (penetration in the CNS) [3, 5]: CNS +/- (CNS +/- (orange) for 15.78 × 10 −6 cm s−1 > Pe > 11.11 × 10 –6 cm s−1) | neurotoxicity induced by Aβ25–35 peptide [4]: markedly reduced the neurotoxicity induced by Aβ25–35 peptide
